The text below walks through data of the GenesisPotency data set.

Assay [1] concerns the target T1, Mitogen-activated protein kinase kinase kinase 7/TGF-beta-activated kinase 1 and MAP3K7-binding protein 1, Homo sapiens (UniProt O43318+Q15750).
T1 sequence (whole entry): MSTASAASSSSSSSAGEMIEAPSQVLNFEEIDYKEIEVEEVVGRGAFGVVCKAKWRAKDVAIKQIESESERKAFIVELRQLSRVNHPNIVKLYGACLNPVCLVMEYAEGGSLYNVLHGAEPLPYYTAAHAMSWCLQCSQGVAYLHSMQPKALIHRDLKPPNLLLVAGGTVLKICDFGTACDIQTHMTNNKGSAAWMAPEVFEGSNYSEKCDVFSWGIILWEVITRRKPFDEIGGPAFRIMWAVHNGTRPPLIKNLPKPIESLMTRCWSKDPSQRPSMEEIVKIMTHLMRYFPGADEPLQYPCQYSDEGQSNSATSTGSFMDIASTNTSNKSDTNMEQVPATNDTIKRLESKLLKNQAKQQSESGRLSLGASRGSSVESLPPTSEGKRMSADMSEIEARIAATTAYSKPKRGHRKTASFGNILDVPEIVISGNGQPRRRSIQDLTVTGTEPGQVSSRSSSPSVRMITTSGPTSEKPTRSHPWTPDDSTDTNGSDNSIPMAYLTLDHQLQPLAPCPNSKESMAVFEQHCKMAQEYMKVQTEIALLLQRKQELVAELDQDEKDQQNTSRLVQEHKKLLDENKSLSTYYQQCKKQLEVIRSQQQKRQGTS

The target in assay [2] is T2, Muscarinic acetylcholine receptor M5, Homo sapiens (UniProt P08912).
T2 sequence (whole entry): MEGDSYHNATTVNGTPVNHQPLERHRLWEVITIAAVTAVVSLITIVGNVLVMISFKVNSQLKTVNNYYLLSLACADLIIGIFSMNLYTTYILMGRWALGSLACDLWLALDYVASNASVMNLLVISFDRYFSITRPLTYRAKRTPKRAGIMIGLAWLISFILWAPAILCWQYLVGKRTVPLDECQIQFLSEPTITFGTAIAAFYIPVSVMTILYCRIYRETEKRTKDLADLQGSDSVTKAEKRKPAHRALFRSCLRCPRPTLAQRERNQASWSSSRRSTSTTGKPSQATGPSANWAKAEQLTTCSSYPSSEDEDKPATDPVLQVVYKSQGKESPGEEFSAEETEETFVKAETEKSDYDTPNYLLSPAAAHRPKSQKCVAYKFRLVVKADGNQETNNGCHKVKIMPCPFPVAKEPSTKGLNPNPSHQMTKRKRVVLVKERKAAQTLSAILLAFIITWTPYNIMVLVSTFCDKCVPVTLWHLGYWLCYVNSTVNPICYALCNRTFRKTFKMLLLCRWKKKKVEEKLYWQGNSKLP

Assay [3] addresses Inositol hexakisphosphate kinase 1, Homo sapiens (UniProt Q92551).
For assay [4], the target named is T3, Glycylpeptide N-tetradecanoyltransferase, Trypanosoma brucei brucei (strain 927/4 GUTat10.1) (UniProt Q388H8).
T3 sequence (whole entry): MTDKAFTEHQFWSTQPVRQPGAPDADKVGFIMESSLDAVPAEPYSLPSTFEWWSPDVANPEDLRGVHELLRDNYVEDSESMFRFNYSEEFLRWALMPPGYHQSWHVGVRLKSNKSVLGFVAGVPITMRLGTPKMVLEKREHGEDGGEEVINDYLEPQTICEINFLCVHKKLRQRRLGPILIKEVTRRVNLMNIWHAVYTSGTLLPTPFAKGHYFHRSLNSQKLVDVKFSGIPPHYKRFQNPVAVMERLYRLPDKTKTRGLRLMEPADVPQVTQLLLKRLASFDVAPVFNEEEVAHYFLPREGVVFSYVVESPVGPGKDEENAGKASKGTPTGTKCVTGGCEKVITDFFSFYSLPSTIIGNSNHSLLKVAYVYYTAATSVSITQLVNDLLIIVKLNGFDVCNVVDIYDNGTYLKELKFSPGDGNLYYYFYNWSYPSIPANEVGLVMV

Assay [5] deals with Carbonic anhydrase 2, Homo sapiens (UniProt P00918).
The target of assay [6] is Delta-type opioid receptor, Mus musculus (UniProt P32300).
Chain of Delta-type opioid receptor, Mus musculus (P32300 whole entry): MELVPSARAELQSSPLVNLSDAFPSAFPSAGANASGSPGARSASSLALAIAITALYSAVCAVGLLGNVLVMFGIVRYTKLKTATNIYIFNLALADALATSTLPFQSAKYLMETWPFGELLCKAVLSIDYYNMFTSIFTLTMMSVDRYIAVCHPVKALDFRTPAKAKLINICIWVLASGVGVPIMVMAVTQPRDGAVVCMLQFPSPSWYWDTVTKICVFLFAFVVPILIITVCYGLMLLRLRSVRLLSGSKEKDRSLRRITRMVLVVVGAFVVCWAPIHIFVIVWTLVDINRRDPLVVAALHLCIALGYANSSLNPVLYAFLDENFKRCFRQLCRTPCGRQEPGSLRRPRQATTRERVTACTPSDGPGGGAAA
For assay [7], the target named is T4, Carbonic anhydrase, Pseudomonas aeruginosa (strain ATCC 15692 / DSM 22644 / CIP 104116 / JCM 14847 / LMG 12228 / 1C / PRS 101 / PAO1) (UniProt Q9HVB9).
T4 sequence (whole entry): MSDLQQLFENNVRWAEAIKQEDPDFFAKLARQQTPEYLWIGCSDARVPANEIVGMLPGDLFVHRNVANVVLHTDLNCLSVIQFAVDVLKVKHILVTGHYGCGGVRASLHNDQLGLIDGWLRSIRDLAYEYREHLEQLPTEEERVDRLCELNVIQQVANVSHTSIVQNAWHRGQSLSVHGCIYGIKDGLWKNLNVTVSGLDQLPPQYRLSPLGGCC

The target of assay [8] is T5, Carbonic anhydrase, Methanosarcina thermophila (strain ATCC 43570 / DSM 1825 / OCM 12 / VKM B-1830 / TM-1) (UniProt P40881).
T5 sequence (whole entry): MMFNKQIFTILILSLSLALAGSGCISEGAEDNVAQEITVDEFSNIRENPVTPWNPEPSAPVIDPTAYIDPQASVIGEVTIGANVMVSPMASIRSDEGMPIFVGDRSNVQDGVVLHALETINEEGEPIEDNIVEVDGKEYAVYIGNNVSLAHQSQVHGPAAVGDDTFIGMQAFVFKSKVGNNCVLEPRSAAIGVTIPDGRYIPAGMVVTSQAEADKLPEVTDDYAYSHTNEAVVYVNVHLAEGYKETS

Assay [9] has as its target Carbonic anhydrase 2, Homo sapiens (UniProt P00918). The source holds these as a separate data set.

Where only a bound is given, the exact number is not on record here.

Chain of Inositol hexakisphosphate kinase 1, Homo sapiens (Q92551 whole entry, looked up): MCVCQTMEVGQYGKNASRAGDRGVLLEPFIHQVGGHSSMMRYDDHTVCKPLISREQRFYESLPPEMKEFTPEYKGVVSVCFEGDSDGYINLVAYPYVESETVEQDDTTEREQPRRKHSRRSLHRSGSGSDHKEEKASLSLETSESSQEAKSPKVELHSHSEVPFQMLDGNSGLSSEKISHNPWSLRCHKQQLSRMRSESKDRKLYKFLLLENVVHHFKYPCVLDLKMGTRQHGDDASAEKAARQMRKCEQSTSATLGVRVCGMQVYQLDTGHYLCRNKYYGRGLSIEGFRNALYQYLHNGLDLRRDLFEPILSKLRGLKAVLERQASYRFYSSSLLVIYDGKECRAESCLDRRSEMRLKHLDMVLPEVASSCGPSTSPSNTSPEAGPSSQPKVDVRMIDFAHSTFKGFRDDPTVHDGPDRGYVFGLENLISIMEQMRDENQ

As to `O=C1CSC(/N=N/c2c(O)[nH]c3ccccc23)=N1`, in assay [1], the IC50 was more than 5 µM. `O=c1c(OC2C(O)OC(CO)C(O)C2O)c(-c2ccc(O)c(O)c2)oc2cc(O)cc(O)c12` (stereo not given): the inhibitory constant (Ki) in assay [2] was more than 10 µM. In assay [3], `O=[N+](O)c1ccc(CNc2nc(NCc3cccc(C(F)(F)F)c3)nc3[nH]cnc23)cc1` displayed an IC50 of less than 200 µM. Molecule `Cc1nn(C)c(C)c1N[SH+]([O-])c1c(Cl)cc(-c2ccc(OC(F)(F)F)cc2)cc1-c1ccc(OC(F)(F)F)cc1` (stereo not given) showed an IC50 in [4] of more than 100 µM. Turning to `CC(C)[C@H]1NC(=O)[C@@H](C)[C@@H](CC=CCCC(N)=O)NC(=O)[C@@H](Cc2ccc(O)cc2)NC(=O)[C@@H](C)NC1=O`, the inhibition constant Ki in [5] was more than 10 µM. With `COc1cc2c(c(OC)c1OC)-c1cc3c(cc1C(=O)[C@@H]1COC(=O)[C@H]1C2)OCO3`, in assay [6], the concentration for half-maximal inhibition (IC50) is more than 10 µM. Molecule `CC(C)[C@H]1NC(=O)[C@@H](C)[C@@H](CC=CCCC(=O)O)NC(=O)[C@@H](Cc2ccc(O)cc2)NC(=O)[C@@H](C)NC1=O` showed a Ki in [5] of more than 10 µM. Regarding `C=CC(=O)Nc1ccc(Cn2nc(-c3ccc4[nH]c(C)nc4c3)c3c(N)ncnc32)cc1`, the Ki in assay [7] was more than 100000 µM; in assay [8] it was more than 200000 µM; in assay [9] it was more than 200000 µM.
